Assay results: patent US10544103B2, “5-HT2 antagonists” (ANAMAR AB, priority 2015, dated 2020)

Tests used:
5-HT2B receptor [1] = target: T1, 5-HT2B receptor (Homo sapiens, UniProt P41595); assay: 5-HT2B receptor antagonism, inhibition of 5-HT stimulated IP-1 accumulation (HTRF) in CHO-K1 cells; type: cell-based; conditions: % inhibition of 5-HT (5 nM) induced effect
T1 construct: host or cells: CHO-K1
Protocol: (§1) 5-HT2B receptor antagonism (performed at Eurofins Panlabs Taiwan, Ltd.) was determined in CHO-K1 cells expressing human receptor protein as inhibition of 5-HT (5 nM) stimulated IP-1 accumulation measured by HTRF quantitation. SB 206553 was used as a standard reference compound. The antagonistic response is expressed as % inhibition of the 5-HT induced effect.

5-HT2B receptor [2] = target: T1, 5-HT2B receptor; assay: 5-HT2B receptor agonism, IP-1 accumulation in CHO-K1 cells without prior 5-HT stimulation; type: cell-based; conditions: % of IP-1 accumulation induced by 5-HT (1 uM)
Protocol: as §1
5-HT2B receptor agonism (performed at Eurofins Panlabs Taiwan, Ltd.) was determined in the same model as described above in Ex. 117. without prior stimulation with 5-HT. The agonistic response is expressed as % of the IP-1 accumulation induced by 5-HT (1 uM) stimulation.

TNF-α plasma levels = assay: Reduction of TNF-α plasma levels in LPS-induced acute inflammation in mice; type: in vivo, mice (BALB/c); conditions: for TNF-α: plasma 90 min after LPS
Protocol: Reduction of TNF-α plasma levels in the LPS-induced acute inflammation in mice was used to determine the in vivo anti-inflammatory properties of the compounds.
Mice (BALB/c, female, approx. 20 g, 8 mice/group) were treated with the test compound perorally (10 or 30 mg/kg in water) 30 min prior to LPS treatment (10 ug in saline, intraperitoneally, serotype 055:B5). Alternatively, the test compound was administered subcutaneously in the neck (10 or 30 mg/kg in 10% PEG400 in saline) 15 min prior to LPS treatment. Blood samples were collected 90 min after LPS treatment and plasma TNF-α concentrations were determined in duplicates by ELISA.

[3] = tested on: Normal human lung fibroblasts (NHLF); assay: Collagen production in normal human lung fibroblasts (PIP ELISA); type: cell-based; conditions: 1 and 10 μM; stimulation with 5 ng/mL TGF-β1 and 5-HT; 48 hours
Protocol: Normal human lung fibroblasts (NHLF, Lonza) were cultured in FGM-2 full medium (+FBS) according to manufacturer's instructions. When confluent, cells were seeded onto 24-well tissue culture plates at 100.000 cells/well (4 wells per condition), until reaching confluence. Once cells were confluent they were serum starved overnight in serum free FGM-2 medium. After 16 hours the serum free medium was removed and cells were treated with (R)-3-(2-hydroxyphenyl)-4-methyl-4,5-dihydro-1H-pyrazole-1-carboximidamide (Example 36, Compound 3) at 1 and 10 μM (vehicle ddH2O). The cells were then stimulated with 5 ng/mL human recombinant TGF-β1 alone or in combination with 1 μM or 10 μM 5-HT. All stimuli were prepared in serum free FGM-2 media (1 mL volume/well). Unstimulated cells received serum free FGM-2 medium alone. After 48 hours the supernatants were collected and stored at −80° C. Collagen production was analyzed in supernatants using procollagen type I C-peptide (PIP) ELISA (Takara Bio # MK1010). Cell viability was tested using a LDH assay (Abcam # Ab102526).

[4] = tested on: bleomycin-induced pulmonary fibrosis; assay: Bleomycin-induced pulmonary fibrosis model in mice; type: in vivo, mice (C57BL/6); conditions: 28 days
Protocol: Pulmonary fibrosis was induced in female C57BL/6 mice by intratracheal instillation of bleomycin in saline (50 uL, 0.5 mg/mL). Treatment was initiated at the day of intratracheal instillation and continued to day 28. The mice (8 animals/group) were orally treated twice daily with 25 or 75 mg/kg (R)-3-(2-Hydroxyphenyl)-4-methyl-4,5-dihydro-1H-pyrazole-1-carboximidamide (Example 36, Compound 3) dissolved in ddH2O. Nintedanib at 30 mg/kg in ddH2O, p.o., twice daily, was used as a positive control. Vehicle-treated bleomycin-challenged mice and vehicle-treated non-fibrotic mice served as controls. The animals were sacrificed after 28 days and the fibrotic area of the lung was determined by histological evaluation of Sirius Red-stained sections according to standard protocol. The collagen content of lung tissue was measured using the hydroxyproline collagen assay and the number of myofibroblasts was quantified by staining for α-smooth muscle actin (α-SMA) in paraffin embedded sections.

5-HT2B receptor [5] = target: T1, 5-HT2B receptor; assay: 5-HT2B receptor binding, 3H-LSD ligand displacement assay
Protocol: 5-HT2B receptor binding (performed at Eurofins Panlabs Taiwan, Ltd.) to human receptor protein expressed in CHO-K1 cells was determined in a ligand displacement assay using ^3H-lysergic acid diethylamide (LSD) as radioligand and ketanserine as a standard reference compound. Data is presented as % displacement of radioligand at indicated compound concentrations, see Table 1 and Table 2.

T1 sequence (P41595 whole entry): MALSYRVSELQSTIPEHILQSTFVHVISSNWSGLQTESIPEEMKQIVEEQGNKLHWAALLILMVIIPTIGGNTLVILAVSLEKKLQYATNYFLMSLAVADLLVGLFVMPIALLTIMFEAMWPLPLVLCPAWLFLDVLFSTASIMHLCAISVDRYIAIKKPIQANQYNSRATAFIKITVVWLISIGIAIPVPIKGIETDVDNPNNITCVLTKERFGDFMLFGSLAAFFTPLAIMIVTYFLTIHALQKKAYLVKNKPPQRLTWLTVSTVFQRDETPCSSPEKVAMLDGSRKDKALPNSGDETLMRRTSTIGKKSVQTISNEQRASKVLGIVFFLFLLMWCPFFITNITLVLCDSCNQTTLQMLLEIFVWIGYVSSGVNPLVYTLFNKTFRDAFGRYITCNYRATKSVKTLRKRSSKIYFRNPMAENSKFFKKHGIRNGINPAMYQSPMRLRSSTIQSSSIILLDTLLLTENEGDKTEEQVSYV

Structure (SMILES) | inhibition at 0.01 µM (5-HT2B receptor [1]) [%] | inhibition at 0.1 µM (5-HT2B receptor [1]) [%] | inhibition at 1 µM (5-HT2B receptor [1]) [%] | inhibition at 10 µM (5-HT2B receptor [1]) [%] | activation at 0.01 µM (5-HT2B receptor [2]) [%] | activation at 0.1 µM (5-HT2B receptor [2]) [%] | activation at 1 µM (5-HT2B receptor [2]) [%] | activation at 10 µM (5-HT2B receptor [2]) [%] | TNF-α (TNF-α plasma levels; 10 mg/kg p.o. (water)) [pg/mL] | TNF-α (TNF-α plasma levels; 30 mg/kg p.o. (water)) [pg/mL] | Effect on TNF-α plasma levels (in words) (TNF-α plasma levels; p.o. administration) | TNF-α (TNF-α plasma levels; 10 mg/kg s.c. (PEG400/saline)) [pg/mL] | other results
Cl.N=C(N)N1CCC(c2ccccc2O)=N1 [Example 3, 3-(2-Hydroxyphenyl)-4,5-dihydro-1H-pyrazole-1-carboximidamide] | 14 | 38 | 96 | 103 | 1 | -2 | -2 | -7 | 5767 | 3992 | dose-dependently reduced TNF-α plasma levels | – | –
C[C@@H]1CN(C(=N)N)N=C1c1ccccc1O (single isomer, unassigned) [Example 36] | – | – | – | – | – | – | – | – | – | – | – | – | Production of collagens (in words) [3]: significantly reduced the production of collagens; Changes in any of the outcomes (fibrotic area, myofibroblasts, hydroxyproline) ([4]; 25 mg/kg bid oral): No statistically significant changes; Fibrotic area (A) ([4]; 75 mg/kg bid oral): reduced the fibrotic area; Hydroxyproline content (C) ([4]; 75 mg/kg bid oral): reduced the hydroxyproline content; Myofibroblast differentiation (B) ([4]; 75 mg/kg bid oral): inhibited myofibroblast differentiation
COC(=O)c1ccc2c(c1)NC(=O)/C2=C(\Nc1ccc(N(C)C(=O)CN2CCN(C)CC2)cc1)c1ccccc1 [Nintedanib, reference compound] | – | – | – | – | – | – | – | – | – | – | – | – | Fibrotic area (A) ([4]; 30 mg/kg bid p.o.): reduced the fibrotic area; Hydroxyproline content (C) ([4]; 30 mg/kg bid p.o.): reduced the hydroxyproline content; Myofibroblast differentiation (B) ([4]; 30 mg/kg bid p.o.): inhibited myofibroblast differentiation
CC(C)c1cc(-c2ccc(F)c3ccccc23)nc(N)n1 [RS127445, reference compound] | – | – | – | – | – | – | – | – | – | – | – | 3215 | –
CC1CN(C(=N)N)N=C1c1ccccc1O.Cl (centres unmarked) [Example 17, 3-(2-Hydroxyphenyl)-4-methyl-4,5-dihydro-1H-pyrazole-1-carboximidamide] | 70 | 96 | 100 | 103 | 3 | 7 | 2 | -2 | 4139 | 4062 | reduced TNF-α levels | 2708 | inhibition at 0.001 µM (5-HT2B receptor [1]; 0.001 uM): 31%; activation at 0.001 µM (5-HT2B receptor [2]; 0.001 uM): 1%; inhibition at 0.01 µM (5-HT2B receptor [5]; 0.01 uM compound): 54%; inhibition at 0.1 µM (5-HT2B receptor [5]; 0.1 uM compound): 91%; inhibition at 1 µM (5-HT2B receptor [5]; 1 uM compound): 100%; inhibition at 10 µM (5-HT2B receptor [5]; 10 uM compound): 100%; TNF-α (TNF-α plasma levels; 30 mg/kg s.c. (PEG400/saline)): 1397 pg/mL; Effect on TNF-α plasma levels (in words) (TNF-α plasma levels; subcutaneous (s.c.) administration): dose-dependent effects; Anti-inflammatory effect compared with the reference compound (TNF-α plasma levels; versus RS127545 (so in the source)): equal or higher anti-inflammatory effects
